Reference: EP0601520A1, “Trifluorothymidine derivatives, process for producing the same and anti-cancer agent containing the same” (MITSUI TOATSU CHEMICALS, Inc., priority 1992, dated 1994)
One block for each molecule: values may come before it.

What was measured:
Meth A fibrosarcoma = assay: Anti-tumor activity, subcutaneously transplanted Meth A fibrosarcoma in mice, oral administration; type: in vivo, CDF₁ mice; conditions: tumors weighed on day 14
Excerpt: (§1) The compound obtained in Examples 1, 4, 9 or 11 was uniformly suspended in 0.5% aqueous methylcellulose solution. The compound obtained in Example 14 was uniformly suspended in 0.5% aqueous methylcellulose solution containing 0.1% TWEEN 80.
(§2) For the compounds obtained in Examples 1, 4, 9 and 11, female CDF₁ mice of 7 weeks old were used. For the compound obtained in Example 14, female CDF₁ mice of 6 weeks old were used. Each group consisted of 5 or 6 animals.
As the tumor, Meth A fibrosarcoma was used.
(§3) To the right abdomen of each mouse, 2 x 10⁶ tumor cells were subcutaneously transplanted. On the next day (day 1), the mice were randomly grouped and the suspension was compulsively administered to the mice by using an oral sound for successive 7 days (day 1 - day 7).
On day 14, the tumors were removed and weighed. The tumor growth ratio (%) was calculated according to the following equation: Tumor Growth Ratio (%) = T/C x 100 [formula] wherein T means the average weight of tumor of the treated group and C means the average weight of tumor of the control group. The results about the compounds obtained in Examples 1, 4, 9 and 11 are shown in Table 2, and the results about the compound obtained in Example 14 are shown in Table 3. In Table 2, "HCFU" means 1-hexyl carbamoyl-5-fluorouracil known as "Carmofur".

[1] = Bodyweight change of the tumor-carrying mice in the anti-tumor activity test; type: in vivo, CDF₁ mice
Excerpt: as §1, §2, §3

[2] = dose 100.0 mg/kg, Table 2 experiment, female CDF₁ mice

Structure (SMILES): C#CCO[C@H]1C[C@H](n2cc(C(F)(F)F)c(=O)[nH]c2=O)O[C@@H]1COC(=S)c1ccc(Cl)cc1 [Example 4, 3'-O-propargyl-5'-O-(4-chlorothiobenzoyl)-α,α,α-trifluorothymidine]
Tumor Weight Ratio (T/C:%) (Meth A fibrosarcoma; dose 14.6 mg/kg oral, day 1 - day 7, female CDF₁ mice 7 weeks old): 23.3%
Tumor Weight Ratio (T/C:%) (Meth A fibrosarcoma; dose 58.5 mg/kg oral, day 1 - day 7, female CDF₁ mice 7 weeks old): 4.8%
Bodyweight Change ([1]; dose 14.6 mg/kg oral, day 1 - day 7, female CDF₁ mice 7 weeks old, 0.5% methylcellulose suspension): -0.8 g
Bodyweight Change ([1]; dose 58.5 mg/kg oral, day 1 - day 7, female CDF₁ mice 7 weeks old, 0.5% methylcellulose suspension): -3.8 g

Structure (SMILES): C#CCO[C@H]1C[C@H](n2cc(C(F)(F)F)c(=O)[nH]c2=O)O[C@@H]1COC(=S)c1cccs1 [Example 11, 3'-O-propargyl-5'-O-(2-thiophenecarbothionyl)-α,α,α-trifluorothymidine]
Tumor Weight Ratio (T/C:%) (Meth A fibrosarcoma; dose 13.8 mg/kg oral, day 1 - day 7, female CDF₁ mice 7 weeks old): 27.6%
Tumor Weight Ratio (T/C:%) (Meth A fibrosarcoma; dose 55.1 mg/kg oral, day 1 - day 7, female CDF₁ mice 7 weeks old): 5.8%
Bodyweight Change ([1]; dose 13.8 mg/kg oral, day 1 - day 7, female CDF₁ mice 7 weeks old, 0.5% methylcellulose suspension): -0.7 g
Bodyweight Change ([1]; dose 55.1 mg/kg oral, day 1 - day 7, female CDF₁ mice 7 weeks old, 0.5% methylcellulose suspension): -4.4 g

Structure (SMILES): C#CCO[C@H]1C[C@H](n2cc(C(F)(F)F)c(=O)[nH]c2=O)O[C@@H]1COC(=S)c1ccccc1 [Example 14, 3'-O-propargyl-5'-O-thiobenzoyl-α,α,α-trifluorothymidine]
Tumor Weight Ratio (T/C:%) (Meth A fibrosarcoma; dose 13.6 mg/kg oral, day 1 - day 7, female CDF₁ mice 6 weeks old): 29.4%
Tumor Weight Ratio (T/C:%) (Meth A fibrosarcoma; dose 54.4 mg/kg oral, day 1 - day 7, female CDF₁ mice 6 weeks old): 7.2%
Bodyweight Change ([1]; dose 13.6 mg/kg oral, day 1 - day 7, female CDF₁ mice 6 weeks old, 0.5% methylcellulose containing 0.1% TWEEN 80): -0.5 g
Bodyweight Change ([1]; dose 54.4 mg/kg oral, day 1 - day 7, female CDF₁ mice 6 weeks old, 0.5% methylcellulose containing 0.1% TWEEN 80): -3.7 g

Structure (SMILES): CCCCCCNC(=O)n1cc(F)c(=O)[nH]c1=O [HCFU, 1-hexyl carbamoyl-5-fluorouracil, reference compound]
Tumor Weight Ratio (T/C:%) (Meth A fibrosarcoma; [2]): 18.0%
Bodyweight Change [1, 2]: -2.0 g

Continued, in another order:

Bodyweight Change ([1]; dose 14.0 mg/kg oral, day 1 - day 7, female CDF₁ mice 7 weeks old, 0.5% methylcellulose suspension): -0.4 g
Bodyweight Change ([1]; dose 56.1 mg/kg oral, day 1 - day 7, female CDF₁ mice 7 weeks old, 0.5% methylcellulose suspension): -3.2 g
Structure (SMILES): C#CCO[C@H]1C[C@H](n2cc(C(F)(F)F)c(=O)[nH]c2=O)O[C@@H]1COC(=S)c1ccc(C)cc1 [Example 1, 3'-O-propargyl-5'-O-(4-methyl-thiobenzoyl)-α,α,α-trifluorothymidine]
Tumor Weight Ratio (T/C:%) (Meth A fibrosarcoma; dose 14.0 mg/kg oral, day 1 - day 7, female CDF₁ mice 7 weeks old): 28.4%
Tumor Weight Ratio (T/C:%) (Meth A fibrosarcoma; dose 56.1 mg/kg oral, day 1 - day 7, female CDF₁ mice 7 weeks old): 7.1%

Bodyweight Change ([1]; dose 15.0 mg/kg oral, day 1 - day 7, female CDF₁ mice 7 weeks old, 0.5% methylcellulose suspension): -0.9 g
Bodyweight Change ([1]; dose 60.0 mg/kg oral, day 1 - day 7, female CDF₁ mice 7 weeks old, 0.5% methylcellulose suspension): -4.3 g
Structure (SMILES): C#CCO[C@H]1C[C@H](n2cc(C(F)(F)F)c(=O)[nH]c2=O)O[C@@H]1COC(=S)c1ccc(SC)cc1 [Example 9, 3'-O-propargyl-5'-O-(4-thiomethylthiobenzoyl)-α,α,α-trifluorothymidine]
Tumor Weight Ratio (T/C:%) (Meth A fibrosarcoma; dose 15.0 mg/kg oral, day 1 - day 7, female CDF₁ mice 7 weeks old): 22.5%
Tumor Weight Ratio (T/C:%) (Meth A fibrosarcoma; dose 60.0 mg/kg oral, day 1 - day 7, female CDF₁ mice 7 weeks old): 5.1%
